Results from ChEMBL document CHEMBL3352560, “Optimization of drug-like properties of nonsteroidal glucocorticoid mimetics and identification of a clinical candidate” (ACS Med Chem Lett, 2014).
≈ marks a conversion by molar mass, not a printed value.

Tests used:
physchem = settings: buffer, pH 6.8
[1] = buffer, pH 6.8, 24 h
in vivo = settings: rat

solubility thermodynamic at 24 h (physchem) | Therm_solubility [1] | half-life (in vivo) | Structure (SMILES)
47 µg/mL (≈ 89.4 µM) |  |  | CC(C)(CC(O)(Cc1cc2cc(N3CCOCC3)ncc2[nH]1)C(F)(F)F)c1cccc(S(C)(=O)=O)c1 (stereo not drawn)
 | 5 µg/mL | 4.2 h | CCS(=O)(=O)c1cc2cc(C[C@](O)(CC(C)(C)c3ccc(F)cc3C(N)=O)C(F)(F)F)[nH]c2cn1 [BI 653048]
